Values of other authors in publication PMC7275090, “Mode of action of teixobactins in cellular membranes” (Nature Communications, 2020).

Test system: bacteria
Conditions: cited from earlier work

Substance: Teixobactin
- antibacterial activity: excellent activity
